{"source": "paper PMC12586182", "about": "(Frontiers in Oncology, 2025)", "assay_in_all_cases": "Cell viability assay (ATPlite)", "assay_type_in_all_cases": "cell-based", "key": {"HEC-251": {"tested_on": "HEC-251", "conditions": "Homo sapiens; HEC-251 cell line, 72 hours incubation", "procedure": "(§1) Intracellular ATP content was used as an indirect readout of cell number using the ATPlite 1Step bioluminescence assay (Revvity, Groningen, the Netherlands). Cells were seeded in 384-well plates at an optimized density to ensure unrestricted growth and maximal signal at the end of the experiment. After 24 hours of incubation, the starting cell number was determined by adding ATPlite to each well of a control plate and recording luminescence on an Envision multimode reader (Revvity, Waltham, MA, USA) ([4]). Compounds were diluted in DMSO in √10-fold steps from 10 mmol/L stocks to obtain 9-point dilution series. After further 31.6-fold dilution in 20 mmol/L HEPES (pH 7.4), the dilution series were added in duplicate to the cells in the 384-well plates to determine the effect of the compounds on cell viability. Vehicle-treated controls were included to determine maximal cell proliferation. The final DMSO concentration was 0.4% (v/v) in all wells. After incubation for an additional 72 hours, the ATP content was measured in each well using ATPlite. The luminescent signal in inhibitor-treated wells was normalized to vehicle-treated control wells to determine the percentage viability at each concentration. Cell doublings were determined by relating the cell number of vehicle-treated controls to the starting cell number for each cell line. The viability assay of a cell line was repeated when the cell doubling deviated > 2-fold from the historic doubling as determined by multiple independent experiments. The quality of the complete assay was determined by a parallel test with doxorubicin on two cell lines. IC50 values were calculated by fitting a four-parameter logistic model to the percentage viability values using IDBS XLfit5 (IDBS, Guildford, United Kingdom). All curves were visually inspected and submitted to an F-test as implemented in IDBS XLfit5. Curves with an F-value above 1.5 were invalidated and IC50 values were maximized at the highest concentration."}, "SW684": {"tested_on": "SW684", "conditions": "Homo sapiens; SW684 cell line, 72 hours incubation", "procedure": "as §1"}, "C-33 A": {"tested_on": "C-33 A", "conditions": "Homo sapiens; C-33 A cell line, 72 hours incubation", "procedure": "as §1"}, "AP-1060": {"tested_on": "AP-1060", "conditions": "Homo sapiens; AP-1060 cell line, 72 hours incubation", "procedure": "as §1"}, "SK-N-FI": {"tested_on": "SK-N-FI", "conditions": "Homo sapiens; SK-N-FI cell line, 72 hours incubation", "procedure": "as §1"}, "Rh30": {"tested_on": "Rh30", "conditions": "Homo sapiens; Rh30 cell line, 72 hours incubation", "procedure": "as §1"}, "TCCSUP": {"tested_on": "TCCSUP", "conditions": "Homo sapiens, TCC-SUP; TCCSUP cell line, 72 hours incubation", "procedure": "as §1"}, "A-549": {"tested_on": "A-549", "conditions": "Homo sapiens, A549; A-549 cell line, 72 hours incubation", "procedure": "as §1"}, "NCI-H226": {"tested_on": "NCI-H226", "conditions": "Homo sapiens; NCI-H226 cell line, 72 hours incubation", "procedure": "as §1"}, "G-361": {"tested_on": "G-361", "conditions": "Homo sapiens; G-361 cell line, 72 hours incubation", "procedure": "as §1"}, "SW948": {"tested_on": "SW948", "conditions": "Homo sapiens; SW948 cell line, 72 hours incubation", "procedure": "as §1"}, "UWB1.289": {"tested_on": "UWB1.289", "conditions": "Homo sapiens, UWB1289; UWB1.289 cell line, 72 hours incubation", "procedure": "as §1"}, "SR": {"tested_on": "SR", "conditions": "Homo sapiens; SR cell line, 72 hours incubation", "procedure": "as §1"}, "A-498": {"tested_on": "A-498", "conditions": "Homo sapiens, A498; A-498 cell line, 72 hours incubation", "procedure": "as §1"}, "RL": {"tested_on": "RL", "conditions": "Homo sapiens; RL cell line, 72 hours incubation", "procedure": "as §1"}, "U-118MG": {"tested_on": "U-118MG", "conditions": "Homo sapiens; U-118MG cell line, 72 hours incubation", "procedure": "as §1"}, "HuTu 80": {"tested_on": "HuTu 80", "conditions": "Homo sapiens, HuTu80; HuTu 80 cell line, 72 hours incubation", "procedure": "as §1"}, "Ku812": {"tested_on": "Ku812", "conditions": "Homo sapiens; Ku812 cell line, 72 hours incubation", "procedure": "as §1"}, "LoVo": {"tested_on": "LoVo", "conditions": "Homo sapiens; LoVo cell line, 72 hours incubation", "procedure": "as §1"}, "T24": {"tested_on": "T24", "conditions": "Homo sapiens, T-24; T24 cell line, 72 hours incubation", "procedure": "as §1"}, "SW780": {"tested_on": "SW780", "conditions": "Homo sapiens; SW780 cell line, 72 hours incubation", "procedure": "as §1"}, "JAR": {"tested_on": "JAR", "conditions": "Homo sapiens; JAR cell line, 72 hours incubation", "procedure": "as §1"}, "SW982": {"tested_on": "SW982", "conditions": "Homo sapiens; SW982 cell line, 72 hours incubation", "procedure": "as §1"}, "KLE": {"tested_on": "KLE", "conditions": "Homo sapiens; KLE cell line, 72 hours incubation", "procedure": "as §1"}, "RD": {"tested_on": "RD", "conditions": "Homo sapiens; RD cell line, 72 hours incubation", "procedure": "as §1"}, "SW872": {"tested_on": "SW872", "conditions": "Homo sapiens; SW872 cell line, 72 hours incubation", "procedure": "as §1"}, "DEL": {"tested_on": "DEL", "conditions": "Homo sapiens; DEL cell line, 72 hours incubation", "procedure": "as §1"}, "SK-N-SH": {"tested_on": "SK-N-SH", "conditions": "Homo sapiens; SK-N-SH cell line, 72 hours incubation", "procedure": "as §1"}, "A-704": {"tested_on": "A-704", "conditions": "Homo sapiens, A704; A-704 cell line, 72 hours incubation", "procedure": "as §1"}, "MM1.S": {"tested_on": "MM1.S", "conditions": "Homo sapiens; MM1.S cell line, 72 hours incubation", "procedure": "as §1"}, "SW48": {"tested_on": "SW48", "conditions": "Homo sapiens; SW48 cell line, 72 hours incubation", "procedure": "as §1"}, "NCI-H2452": {"tested_on": "NCI-H2452", "conditions": "Homo sapiens; NCI-H2452 cell line, 72 hours incubation", "procedure": "as §1"}}}
{"smiles": "O=C(c1ccc(Oc2ccccc2)cc1Cl)c1c[nH]c2ncnc(N[C@@H]3CC[C@@H](CO)OC3)c12", "note": "[nemtabrutinib]", "values": [{"measurement": "IC50", "setting": "HEC-251", "result": 0.178, "unit": "µM"}, {"measurement": "IC50", "setting": "SW684", "result": 11.9, "unit": "µM"}, {"measurement": "IC50", "setting": "C-33 A", "result": 1.32, "unit": "µM"}, {"measurement": "IC50", "setting": "AP-1060", "result": 0.736, "unit": "µM"}, {"measurement": "IC50", "setting": "SK-N-FI", "result": 3.94, "unit": "µM"}, {"measurement": "IC50", "setting": "Rh30", "result": 5.52, "unit": "µM"}, {"measurement": "IC50", "setting": "TCCSUP", "result": 7.7, "unit": "µM"}, {"measurement": "IC50", "setting": "A-549", "result": 7.26, "unit": "µM"}, {"measurement": "IC50", "setting": "NCI-H226", "result": 4.62, "unit": "µM"}, {"measurement": "IC50", "setting": "G-361", "result": 1.08, "unit": "µM"}, {"measurement": "IC50", "setting": "SW948", "result": 3.57, "unit": "µM"}, {"measurement": "IC50", "setting": "UWB1.289", "result": 2.49, "unit": "µM"}, {"measurement": "IC50", "setting": "SR", "result": 9.15, "unit": "µM"}, {"measurement": "IC50", "setting": "A-498", "result": 6.4, "unit": "µM"}, {"measurement": "IC50", "setting": "RL", "result": 4.06, "unit": "µM"}, {"measurement": "IC50", "setting": "U-118MG", "result": 12.9, "unit": "µM"}, {"measurement": "IC50", "setting": "HuTu 80", "result": 1.68, "unit": "µM"}, {"measurement": "IC50", "setting": "Ku812", "result": 1.43, "unit": "µM"}, {"measurement": "IC50", "setting": "LoVo", "result": 2.36, "unit": "µM"}, {"measurement": "IC50", "setting": "T24", "result": 2.79, "unit": "µM"}, {"measurement": "IC50", "setting": "SW780", "result": 2.79, "unit": "µM"}, {"measurement": "IC50", "setting": "JAR", "result": 18.1, "unit": "µM"}, {"measurement": "IC50", "setting": "SW982", "result": 10.7, "unit": "µM"}, {"measurement": "IC50", "setting": "KLE", "result": 2.11, "unit": "µM"}, {"measurement": "IC50", "setting": "RD", "result": 3.44, "unit": "µM"}, {"measurement": "IC50", "setting": "SW872", "result": 0.666, "unit": "µM"}, {"measurement": "IC50", "setting": "DEL", "result": 15.4, "unit": "µM"}, {"measurement": "IC50", "setting": "SK-N-SH", "result": 3.43, "unit": "µM"}, {"measurement": "IC50", "setting": "A-704", "result": 16.3, "unit": "µM"}, {"measurement": "IC50", "setting": "MM1.S", "result": 5.48, "unit": "µM"}, {"measurement": "IC50", "setting": "SW48", "result": 0.445, "unit": "µM"}, {"measurement": "IC50", "setting": "NCI-H2452", "result": 5.46, "unit": "µM"}]}
